{
  "source": "patent US7378397B2",
  "about": "(The Provost, Fellows and Scholars of the College of the …, priority 2000, dated 2008)",
  "key": {"TRH-DE [1]": {"target": "T1, TRH-DE (Sus scrofa, UniProt A0A287AP33)", "T1 construct": "The inventor purified TRH-DE from porcine brain according to purification procedures previously published by Dr. K. Bauer; from tissue; host or cells: porcine brain (TRH-DE); bovine kidney (DPP-IV, gift from Dr. C. H. Williams)", "T1 sequence (A0A287AP33 1-1066)": "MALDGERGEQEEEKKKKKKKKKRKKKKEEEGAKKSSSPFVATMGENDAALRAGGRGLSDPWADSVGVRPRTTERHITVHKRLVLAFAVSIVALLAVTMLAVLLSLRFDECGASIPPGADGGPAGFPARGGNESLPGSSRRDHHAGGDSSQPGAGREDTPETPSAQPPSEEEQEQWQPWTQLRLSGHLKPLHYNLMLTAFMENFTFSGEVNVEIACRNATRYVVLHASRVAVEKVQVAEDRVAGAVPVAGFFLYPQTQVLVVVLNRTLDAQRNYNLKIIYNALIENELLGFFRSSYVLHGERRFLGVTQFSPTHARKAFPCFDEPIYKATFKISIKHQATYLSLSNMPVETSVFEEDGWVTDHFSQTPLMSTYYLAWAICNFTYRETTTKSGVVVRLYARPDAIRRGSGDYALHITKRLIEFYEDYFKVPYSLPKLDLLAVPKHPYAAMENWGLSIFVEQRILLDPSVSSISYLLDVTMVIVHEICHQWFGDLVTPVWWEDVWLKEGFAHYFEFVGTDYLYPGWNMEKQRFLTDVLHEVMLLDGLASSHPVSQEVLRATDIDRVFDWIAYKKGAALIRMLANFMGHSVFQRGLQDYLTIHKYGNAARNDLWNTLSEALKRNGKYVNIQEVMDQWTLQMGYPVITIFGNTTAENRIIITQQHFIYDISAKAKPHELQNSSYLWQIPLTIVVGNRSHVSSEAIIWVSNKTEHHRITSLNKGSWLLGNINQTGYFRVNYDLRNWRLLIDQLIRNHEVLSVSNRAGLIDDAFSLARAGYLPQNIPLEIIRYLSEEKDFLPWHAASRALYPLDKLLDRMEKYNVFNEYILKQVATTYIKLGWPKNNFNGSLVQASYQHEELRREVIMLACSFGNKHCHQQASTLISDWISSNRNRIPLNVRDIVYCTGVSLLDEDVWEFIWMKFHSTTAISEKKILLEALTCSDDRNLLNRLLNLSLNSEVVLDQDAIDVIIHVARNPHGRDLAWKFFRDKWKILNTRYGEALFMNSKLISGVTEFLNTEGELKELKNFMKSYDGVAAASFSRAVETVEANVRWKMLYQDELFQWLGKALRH", "assay": "HPLC assay of peptide hydrolysis by TRH-DE (Glp production)", "assay_type": "biochemical, porcine", "details": "for hydrolysis by TRH-DE (release of Glp): 1 mM peptide incubated with TRH-DE 18 h at 37° C., HPLC", "procedure": "The inventor purified TRH-DE from porcine brain according to purification procedures previously published by Dr. K. Bauer, (Max-Planck-Institut, Hannover, Germany) (1). TRH-DE was purified almost 20,000 fold. […] Dipeptidyl peptidase IV (DPP-IV) (EC 3.4.14.5), purified from bovine kidney (7.7 mg ml^−1, specific activity of 17.5 U mg^−1 with Gly-ProAMC as substrate), was obtained as a gilt from Dr. C. H. Williams (Queen's University Belfast, U.K). (DPP-IV was used as the coupling enzyme used in the fluorometric assays).\nOne unit (U) of enzyme activity was defined as that amount catalysing the formation of one μmol of product in one minute under the standard conditions employed. All incubations in the assays described below were carried out in 20 mM potassium phosphate buffer, pH 7.5, at 37° C.\nKinetic analysis of the peptide library using HPLC—The ability of each peptide in the library to act as a TRH-DE substrate was assessed using HPLC. As an initial screen, 1 mM peptide was incubated with 0.8 μg TRH-DE in a total volume of 1 ml for 18 h at 37° C. Control samples were included in which peptide (1 mM) or Glp (0.2 mM-0.8 mM) were incubated under identical conditions in the absence of TRH-DE. TRH-DE activity was terminated by the addition of TFA (0.15% v/v) and samples were then analysed using HPLC as described previously (24). Products resulting from TRH-DE hydrolysis could be separated on a C-18 reverse-phase column (Hypersil, UK) using a linear gradient of 0-70% acetonitrile in 0.08% (v/v) TFA. The concentration of Glp formed by the action of TRH-DE on the peptide library was measured by UV absorbance at 206 nm with a quantitative detection limit of 0.1 mM for a 40 μl injection volume, employing a signal to noise ratio of 10. Following the incubation of each peptide with TRH-DE, evidence of Glp in the sample was taken to indicate that the peptide was a TRH-DE substrate.\nThe rates of hydrolysis for each of those peptides identified as substrates were then compared by measuring Gip production using microassays with shorter incubation times. In these assays peptide (1 mM) was incubated at 37° C. in a total volume of 100 μl. 0.8-3.2 μg TRH-DE and incubations times of 5 min to 18 h were used routinely. Measurements were made in triplicate. The rate of TRH-OH hydrolysis was also measured by this method."}, "Male Wistar rats [2]": {"tested_on": "Male Wistar rats", "assay": "behavioural effects (WDS, locomotion) after i.c.v. administration", "assay_type": "in vivo, rat", "details": "30 min", "procedure": "Methods: Behavioural studies were conducted using experimentally naïve Male Wistar rats (200-250 g) maintained in a temperature controlled (21° C.), artificially-lighted (12 hr light cycle) room with free access to food and water. Behavioural effects of […] following intra-cerebroventricular (i.c.v.) administration: Animals were implanted with guide cannula aimed at the lateral cerebral ventricles (AP-0.92 mm, ML-1.5 mm, DV-2.6 mm relative to Bregma, atlas of Paxinos & Watson) under halothane anaesthesia. One week following surgery placement of the cannulae was assessed by the ability of a microinjection of angiotensin II (200 ng in 1 μl) to induce drinking behaviour. […] They were then administered either vehicle (1 μl 0.9% saline) or […] (5 μg in 1 μl) followed 1 minute later by vehicle (1 μl 0.9% saline) or TRH (5 μg in 1 μl). One minute after the last i.c.v. injection animals were placed back into the perspex cage and their behaviour monitored by a computer automated tracking system for 30 minutes (Ethovision Pro, Noldus) to provide measures of locomotor activity. Animals were videotaped for subsequent blind analysis of WDS behaviour by a trained observer. A threshold dose of 5 μg TRH was chosen for i.c.v. administration so that if […] enhanced responses to TRH, this would be clearly visible. The statistical significance of differences between behavioural effects of treatments was determined using the Student's t-test or ANOVA, followed by a post-ANOVA test, as indicated. Radioligand binding data were analysed using non-linear curve fitting software (Prism, Graph Pad Software Inc.). IC50 values calculated from competition experiments were converted to Ki values using the Cheng-Prusoff (41) equation Ki=IC50/(1+L/Kd), where L=ligand concentration and Kd=the apparent dissociation constant for [^3[…]."}, "Male Wistar rats [3]": {"tested_on": "Male Wistar rats", "assay": "behavioural effects (activity score, WDS, locomotion) after i.p. administration", "assay_type": "in vivo, rat", "details": "i.p.", "procedure": "Methods: Behavioural studies were conducted using experimentally naïve Male Wistar rats (200-250 g) maintained in a temperature controlled (21° C.), artificially-lighted (12 hr light cycle) room with free access to food and water. Behavioural effects of TRH±TRH-DE inhibitor following intraperitoneal (i.p.) administration: On the day of the experiment, animals were singly housed in perspex cages (30×20×20 cm) and allowed to acclimatize for 20 min. After this period, two baseline measurements of behaviour were made at 10 and 5 min prior to administration of drugs. […] Animals were then observed by two independent observers who were blind to treatment, every 5 min for 30 sec. Blocks of 5 animals were treated at a time, 1 per drug group. Blocks were repeated 5 times. The occurrence of individual behaviours were noted using a behavioural check list, which included grooming, locomotion, rearing, chewing, sniffing, head weave, tail elevation, and/or straub tail and WDS behaviours. These behaviours were summed to yield an overall activity count. Animals were videotaped for separate subsequent analysis of WDS. All WDS behaviours occurring during each 5 min interval after drug administration were counted. The statistical significance of differences between behavioural effects of treatments was determined using the Student's t-test or ANOVA, followed by a post-ANOVA test, as indicated. Radioligand binding data were analysed using non-linear curve fitting software (Prism, Graph Pad Software Inc.). IC50 values calculated from competition experiments were converted to Ki values using the Cheng-Prusoff (41) equation Ki=IC50/(1+L/Kd), where L=ligand concentration and Kd=the apparent dissociation constant for [^3[…]."}, "[4]": {"target": "TRH receptors in rat cortical membranes", "assay": "radioligand binding to ^3H-3MeHis-TRH-labelled receptors in rat cortex", "details": "competition with 6-8 nM ^3H-3MeHis-TRH, Cheng-Prusoff", "procedure": "Evaluation of the ability of TRH, Glp-Asn-ProNH2, and Glp-Asn-ProAMC to bind to ^3H-3MeHis-TRH-labelled receptors in rat cortex: Radioligand binding assays were conducted to investigate the possibility that the two TRH-DE inhibitors might exert their effects by acting independently at TRH receptors in the brain.\nCortex tissue from male Sprague-Dawley rats (250 g) was dissected out, weighed and homogenised in 30 volumes of ice-cold sodium phosphate buffer (0.02 M, pH 7.5). The homogenates were centrifuged at 30,000 g at 4° C. for 30 min. The supernatant was discarded and the pellet was resuspended at 100 mg wet wt/ml in buffer containing 177 μM bacitracin. […] Non-specific binding was defined in the presence of 10 μM TRH.\nThe statistical significance of differences between behavioural effects of treatments was determined using the Student's t-test or ANOVA, followed by a post-ANOVA test, as indicated. Radioligand binding data were analysed using non-linear curve fitting software (Prism, Graph Pad Software Inc.). IC50 values calculated from competition experiments were converted to Ki values using the Cheng-Prusoff (41) equation Ki=IC50/(1+L/Kd), where L=ligand concentration and Kd=the apparent dissociation constant for [^3H]-[3-MeHis]TRH."}, "TRH-DE [5]": {"target": "T1, TRH-DE", "details": "From Ref. 23 (inventor's publication); cited from earlier work"}},
  "data": [
    {"smiles": "NC(=O)[C@@H]1CCCN1C(=O)[C@H](Cc1cnc[nH]1)NC(=O)[C@@H]1CCC(=O)N1", "note": "[Glp-His-ProNH2, L-pyroglutamyl-L-histidyl-L-prolineamide]", "values": [
      {"measurement": "hydrolysis by TRH-DE (release of Glp)", "setting": "TRH-DE [1]", "result": "degraded fully"},
      {"measurement": "hydrolysis by TRH-DE (release of Glp)", "setting": "TRH-DE [1]; listed as TRH", "result": "no TRH (RT 8.566 min) remained"},
      {"measurement": "Vmax", "setting": "TRH-DE [1]; estimated from HPLC rates of hydrolysis using Vmax=vo{(Km+[S])/[S]}", "result": "2.63 ± 0.26 (11) U mg^−1"},
      {"measurement": "Rate of hydrolysis", "setting": "TRH-DE [1]; peptide 1 mM, 37° C., Glp production by HPLC, mean±S.D.", "result": "2.54 ± 0.25 (11) U mg^−1"},
      {"measurement": "number of WDS compared with vehicle", "setting": "Male Wistar rats [2]; 5 μg alone", "result": "Neither TRH nor Glp-Asn-ProAMC alone produced a significantly greater number of WDS than vehicle"},
      {"measurement": "number of WDS during the observation period", "setting": "Male Wistar rats [2]; TRH 5 μg ± Glp-Asn-ProAMC 5 μg, mean±S.E., n=6", "result": "3.33±1.23", "unit": "WDS/30 min"},
      {"measurement": "individual behaviours contributing to the activity score", "setting": "Male Wistar rats [3]; 10 mg/kg", "result": "primarily promoted grooming, sniffing, and chewing behaviours"},
      {"measurement": "rat activity scores compared with saline", "setting": "Male Wistar rats [3]; 10 mg/kg each, 40 min post injection", "result": "increase in rat activity scores throughout the 40 min period post injection"},
      {"measurement": "decline of behavioural responses with time", "setting": "Male Wistar rats [3]; 10 mg/kg each, late observation period", "result": "tended to decline 35 min after i.p. administration"},
      {"measurement": "induction of WDS", "setting": "Male Wistar rats [3]; 10 mg/kg, 40 min observation", "result": "immediate induction of WDS in all animals with the response gradually declining to zero after 40 min"},
      {"measurement": "pKi", "setting": "[4]", "result": "7.65±0.17"},
      {"measurement": "Km", "setting": "TRH-DE [5]", "result": 35, "unit": "µM"}
    ]}
  ]
}
